Each structure is given as a SMILES string. ≈ marks a conversion by molar mass, not a printed value.

The term EC50 denotes the concentration that produces a half-maximal response. The term IC50 denotes the concentration that gives 50% inhibition. Lower therefore signals inhibition by little substance. The solubility is the dissolved amount per volume that the medium holds. Broadly, the AUC is concentration integrated over time. A low value points to less exposure. Broadly, the Cmax is the maximum level reached in the sampled fluid or tissue.

Data set [1] relates to MCF7. The experiment in a line: Viability of MCF7 cells by MTS assay. The class given is functional, cell-based. To be noted: Homo sapiens. Background: Tetrazolium assays rely on reduction of a dye to a coloured formazan, in cell work by metabolically active cells.
Data set [2] has as its target T1, Heat shock protein HSP90 (Homo sapiens, UniProt P07900+P08238). Nature of the data set: Ability to degrade Her2 in MCF7 cells. The class given is functional, cell-based.
The nature of data set [3]: Solubility in simulated intestinal fluid at pH 6.5. The class given is physicochemical.
Data set [4] is described as follows: Solubility in Balb/C mouse serum at pH 7.4. Type of data set: ADME, cell-free.
A short description of data set [5]: Solubility in simulated gastric fluid at pH 2.0. The class given is physicochemical.
The subject of data set [6] is Mus musculus. The experiment in a line: AUC in Balb/C mouse at 100 mg/kg, po. Type of data set: ADME, organism-based, Plasma. More on the design: dose 100 mg/kg, route oral. To be noted: in vivo.
The target in data set [7] is T1, Heat shock protein HSP90. To be noted: mcf7.
Description: Binding affinity to Hsp90 in MCF7 cell lysate
A short description of data set [8]: Cmax in Balb/C mouse at 100 mg/kg, po. Details: dose 100 mg/kg, route oral. The class given is ADME, organism-based. To be noted: in vivo.
The test system of data set [9] is NCI-N87. The experiment in a line: Inhibition of N87 cell line xenografted in mouse at 200 mg/kg, po. To be noted: read-out: TGI. Type of data set: functional, Homo sapiens.

For the compound `Nc1ncnc2c1nc(Sc1nc3cccc(Cl)c3s1)n2CCO`, in [1], it took 700 nM to reach a half-maximal effect (EC50). In data set [2], this compound yielded an IC50 of 300 nM.

On to `CC(C)(C)NCCCn1c(Sc2nc3cccc(Cl)c3s2)nc2c(N)ncnc21`, for which, in data set [1], the EC50 was 200 nM. Also, the IC50 in data set [2] worked out at 150 nM. Further, the solubility in data set [3] was 138 µg/mL (≈ 307 µM); in data set [4], 199 µg/mL (≈ 444 µM).

In data set [1], `CCCCn1c(Sc2nc3c(Cl)cccc3s2)nc2c(N)ncnc21` yielded an EC50 of 20000 nM. This compound also showed a concentration for half-maximal inhibition (IC50) in data set [2] of 15000 nM.

Consider `CC(=O)OCCCn1c(Sc2nc3cccc(Cl)c3s2)nc2c(N)ncnc21`, for which the EC50 in data set [1] was 200 nM; in data set [7], 160 nM. This compound also yielded an IC50 in data set [2] of 90 nM. Also, the solubility was 220 µg/mL (≈ 506 µM) in [5], 16 µg/mL (≈ 36.8 µM) in data set [3] and 9 µg/mL (≈ 20.7 µM) in data set [4]. The compound also registered an AUC in data set [6] of 1040 ng·h/mL.

`CCOP(=O)(CCn1c(Sc2nc3cncc(Br)c3s2)nc2c(N)ncnc21)OCC` yielded an EC50 in data set [1] of 100 nM. This counts as sub-micromolar.

In the case of `CCOP(=O)(CCn1c(Sc2nc3cncc(Cl)c3s2)nc2c(N)ncnc21)OCC`, the midpoint of the response in data set [1], the EC50, lay at 250 nM. Further, the solubility was 124 µg/mL (≈ 248 µM) in [5], 38.3 µg/mL (≈ 76.6 µM) in [3] and 14 µg/mL (≈ 28 µM) in data set [4].

As to `CCCCn1c(Sc2nc3ccccc3s2)nc2c(N)ncnc21`, the EC50 in [1] came to 10000 nM. This compound yielded an IC50 in data set [2] of 5000 nM.

With `CCCCn1c(Sc2nc3cc(Cl)ccc3s2)nc2c(N)ncnc21`, the EC50 in data set [1] was determined as 20000 nM. Further, the IC50 in [2] was 20000 nM.

In data set [1], `CCCCn1c(Sc2nc3cccc(Cl)c3s2)nc2c(N)ncnc21` yielded an EC50 of 250 nM. The compound further displayed an IC50 in data set [2] of 180 nM.

`CCCCn1c(Sc2nc3cccc(OCC)c3s2)nc2c(N)ncnc21` gave an EC50 in [1] of 16000 nM. Besides, in [2], the IC50 came out at 100000 nM.

In data set [1], `CCCCn1c(Sc2nc3cccc(F)c3s2)nc2c(N)ncnc21` displayed an EC50 of 1000 nM. This compound returned an IC50 in data set [2] of 200 nM.

In turn, `CCCCn1c(Sc2nc3ccc(Cl)c(Cl)c3s2)nc2c(N)ncnc21` came in with an EC50 in [1] of 20000 nM. The same compound yielded an IC50 in [2] of 25000 nM.

In the case of `CC(C)(C)CNCCn1c(Sc2nc3cccc(Cl)c3s2)nc2c(N)ncnc21`, the EC50 in data set [1] is 30 nM. In addition, the IC50 in [2] amounted to 35 nM. The compound further returned a solubility in [4] of 4.9 µg/mL (≈ 10.9 µM).

For the compound `Nc1ncnc2c1nc(Sc1nc3cccc(Cl)c3s1)n2CCNC1CC1`, the peak level in data set [8] (Cmax) was 4510 ng/mL. The EC50 came out at 300 nM in [1] and 130 nM in data set [7]. Also, in data set [9], the inhibition in vivo at 200 mg/kg is 56%. The compound further showed an IC50 in data set [2] of 110 nM. For the same compound, the solubility in data set [5] was 245 µg/mL (≈ 586 µM); in data set [3], 21 µg/mL (≈ 50.2 µM); in data set [4] it was 59 µg/mL (≈ 141 µM). This compound came in with an AUC in data set [6] of 7310 ng·h/mL.

`CC(=O)OCCCn1c(Sc2nc3cncc(Cl)c3s2)nc2c(N)ncnc21` displayed an EC50 in [1] of 1000 nM. In data set [2], this compound came in with an IC50 of 170 nM.

Regarding `CCCCn1c(Sc2nc3cncc(Br)c3s2)nc2c(N)ncnc21`, in [1], the EC50 was 4000 nM. The IC50 in data set [2] is 400 nM.

In data set [5], `CCOP(=O)(CCn1c(Sc2nc3cccc(Cl)c3s2)nc2c(N)ncnc21)OCC` returned a solubility of 98.5 µg/mL (≈ 197 µM).

As to `CC(=O)OCCCCn1c(Sc2nc3cccc(Cl)c3s2)nc2c(N)ncnc21`, the concentration for a half-maximal effect (EC50) is 240 nM in [1] and 140 nM in data set [7]. In data set [2], this compound came in with an IC50 of 130 nM. Also, the solubility in data set [5] is 46 µg/mL (≈ 102 µM); in [3] it was 3 µg/mL (≈ 6.68 µM).

`CCCCn1c(Sc2nc3ccc(Cl)cc3s2)nc2c(N)ncnc21` registered an EC50 in [1] of 20000 nM. In addition, in [2], the IC50 was 7000 nM.

For `CCCCn1c(Sc2nc3cncc(Cl)c3s2)nc2c(N)ncnc21`, the EC50 in data set [1] is 1000 nM. Besides, the IC50 in data set [2] is 280 nM.

As for `Nc1ncnc2c1nc(Sc1nc3cccc(Cl)c3s1)n2CCN1CCOCC1`, the EC50 amounted to 300 nM in data set [1] and 150 nM in [7]. In addition, the IC50 in data set [2] is given as 250 nM.

With `CCCn1c(Sc2nc3cccc(Cl)c3s2)nc2c(N)ncnc21`, the midpoint of the response in data set [1], the EC50, lay at 850 nM. For the same compound, the half-maximal inhibitory concentration (IC50) in data set [2] is 250 nM.

In turn, `Nc1ncnc2c1nc(Sc1nc3cccc(Cl)c3s1)n2CCCO` gave an EC50 in data set [1] of 250 nM. Also, the IC50 in data set [2] was found to be 150 nM.

For `Nc1ncnc2c1nc(Sc1nc3cccc(Cl)c3s1)n2CCCCO`, in data set [1], the EC50 is 200 nM. The IC50 in data set [2] is on record as 150 nM.

Consider `CC(C)(C)NCCn1c(Sc2nc3cccc(Cl)c3s2)nc2c(N)ncnc21`, for which, in [1], a half-maximal response (EC50) required 300 nM. In data set [2], this compound gave an IC50 of 140 nM.

In the case of `N#CCCCCn1c(Sc2nc3cccc(Cl)c3s2)nc2c(N)ncnc21`, the EC50 was determined as 300 nM in data set [1] and 100 nM in data set [7]. In [2], this compound showed an IC50 of 110 nM. The solubility in data set [5] was 58.7 µg/mL (≈ 141 µM); in [3], 4.4 µg/mL (≈ 10.6 µM); in data set [4], 31.3 µg/mL (≈ 75.3 µM).

On to `CCCCn1c(Sc2nc3cccc(OC)c3s2)nc2c(N)ncnc21`, for which the figures for the EC50 in [1] and in data set [7] were 230 nM and 200 nM, respectively. The compound further gave an IC50 in [2] of 190 nM. In addition, the solubility in [5] was 35 µg/mL (≈ 90.6 µM); in [3], 2 µg/mL (≈ 5.17 µM); in [4] it was 18 µg/mL (≈ 46.6 µM).

Compound `CCCCn1c(Sc2nc3cccc(C)c3s2)nc2c(N)ncnc21` registered an EC50 in [1] of 1300 nM. Besides, the IC50 in data set [2] came to 300 nM.

In turn, `CC(C)NCCCn1c(Sc2nc3cccc(Cl)c3s2)nc2c(N)ncnc21` displayed an EC50 in data set [1] of 500 nM. Besides, in [2], the IC50 is 170 nM.

For the compound `CCCCn1c(Sc2nc3cccc(Br)c3s2)nc2c(N)ncnc21`, the EC50 in [1] amounted to 2000 nM. The compound also had an IC50 in data set [2] of 330 nM.

In data set [1], `CCCCCn1c(Sc2nc3cccc(Cl)c3s2)nc2c(N)ncnc21` yielded a concentration for a half-maximal effect (EC50) of 6000 nM. Moreover, the IC50 in data set [2] is given as 700 nM.

`CCn1c(Sc2nc3cccc(Cl)c3s2)nc2c(N)ncnc21`: the EC50 in [1] was 800 nM. The same compound came in with an IC50 in data set [2] of 200 nM.

In turn, `CC(=O)OCCn1c(Sc2nc3cccc(Cl)c3s2)nc2c(N)ncnc21` came in with an EC50 in data set [1] of 300 nM. This compound also displayed an IC50 in data set [2] of 150 nM.

These data come from ChEMBL document CHEMBL1146181, “7'-substituted benzothiazolothio- and pyridinothiazolothio-purines as potent heat shock protein 90 inhibitors” (J Med Chem, 2006).
